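The compound was tested at five concentrations on cells cultured in 96-well plates, with a 48-hour exposure period. TGI denotes the concentration required for complete inhibition of growth.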
How the values were obtained:
Assay in all cases: growth of human tumour cells (NCI), 48 h
786-0 renal = test system: 786-0 renal
A498 renal = test system: A498 renal
A549 NSCLC = test system: A549 NSCLC
KM12 colon = test system: KM12 colon
LOX IMVI melanoma = test system: LOX IMVI melanoma
MOLT-4 leukemia = test system: MOLT-4 leukemia
NCI-H522 lung = test system: NCI-H522 lung
SF-268 CNS = test system: SF-268 CNS
SF-539 CNS = test system: SF-539 CNS
NCI/ADR-RES ovarian = test system: NCI/ADR-RES ovarian

Row | Compound | TGI (786-0 renal) [µM] | TGI (A498 renal) [µM] | TGI (A549 NSCLC) [µM] | TGI (KM12 colon) [µM] | TGI (LOX IMVI melanoma) [µM] | TGI (MOLT-4 leukemia) [µM] | TGI (NCI-H522 lung) [µM] | TGI (SF-268 CNS) [µM] | TGI (SF-539 CNS) [µM] | TGI (NCI/ADR-RES ovarian) [µM]
1 | CN(C)C(=S)/N=c1\ss/c(=N\C(=S)N(C)C)n1-c1ccc(Cl)cc1 | > 100 | > 100 | > 100 | > 100 | > 100 | > 100 | > 100 | > 100 | > 100 | –
2 | CCOC(=O)[C@H]1CSC[C@@H](C(=O)OC)N1 | > 100 | > 100 | > 100 | > 100 | > 100 | > 100 | > 100 | > 100 | – | –
3 | O=C(O)C1C(=O)Oc2c(cccc2[N+](=O)[O-])C1O (stereo unspecified) | > 100 | > 100 | > 100 | – | > 100 | > 100 | > 100 | > 100 | > 100 | > 100
4 | COC(=O)c1ccc(NC(=O)c2cc(OC)c(OC)c(OC)c2)cc1 | > 100 | > 100 | > 100 | > 100 | > 100 | > 100 | 3.58 | > 100 | 5.5 | –
5 | O=C(O)C(C(=O)C(=O)C(C(=O)O)c1ccc(Cl)cc1)c1ccc(Cl)cc1 (stereo unspecified) | 15.7 | 16.6 | 11.2 | 13.4 | 8.79 | 5 | 4.45 | 11.9 | 4.6 | –
6 | O=c1cc(-c2ccccc2)nc(/C=C(\O)c2ccncc2)n1-c1ccccc1 | > 100 | > 100 | > 100 | > 100 | > 100 | – | > 100 | > 100 | > 100 | –
7 | COc1ccc(OC)c(NCC#N)c1 | > 100 | > 100 | > 100 | > 100 | > 100 | > 100 | > 100 | > 100 | > 100 | –
8 | CC(=O)C1COC(O)C1C (stereo unspecified) | 49.8 | > 100 | > 100 | 28 | 39.4 | 99.2 | – | 49.9 | 45.4 | 48.6
9 | CC(=O)Nc1ccc(-c2nnc(SCC(=O)Nc3cccc([N+](=O)[O-])c3)o2)cc1 | 40.6 | – | 46.3 | 39.4 | 23 | > 100 | 22.4 | 31.7 | 31.4 | –
10 | COc1cc2cc3c4c(cc(OC)c(OC)c4c2cc1OC)CCN3C(=O)N(C)C | > 100 | > 100 | > 100 | > 100 | > 100 | > 100 | > 100 | > 100 | > 100 | –
11 | CCOc1ccccc1N1C(=O)C(=O)C(c2nc3ccccc3o2)/C(=N\N)C1=O (stereo unspecified) | > 100 | > 100 | > 100 | > 100 | > 100 | – | > 100 | > 100 | > 100 | –
12 | NC(=O)C(=Cc1ccc(CP(=O)(O)O)cc1)C(N)=O | > 100 | > 100 | > 100 | > 100 | > 100 | > 100 | > 100 | – | > 100 | –
13 | C/C(CC(=O)Nc1ccc(Cl)cc1)=N\NC(=O)C[n+]1ccccc1 | > 100 | – | > 100 | > 100 | > 100 | > 100 | > 100 | > 100 | > 100 | –

— PubChem BioAssay (NCI)
